Values quoted from earlier work, collected in patent US20190167675A1, “METHODS AND COMPOSITIONS FOR APPETITE CONTROL AND WEIGHT MANAGEMENT” (SHANGHAI YAO YUAN BIOTECHNOLOGY CO., LTD., priority 2016, published 2019).
Read-outs that look alike come from different tables or passages of the source.

Key:
ASIC3 [1] = settings: in vivo; cited from earlier work
ASIC3 [2] = target: T1, ASIC3 (Homo sapiens, UniProt Q9UHC3); settings: cited from earlier work
T1 sequence (Q9UHC3 1-531): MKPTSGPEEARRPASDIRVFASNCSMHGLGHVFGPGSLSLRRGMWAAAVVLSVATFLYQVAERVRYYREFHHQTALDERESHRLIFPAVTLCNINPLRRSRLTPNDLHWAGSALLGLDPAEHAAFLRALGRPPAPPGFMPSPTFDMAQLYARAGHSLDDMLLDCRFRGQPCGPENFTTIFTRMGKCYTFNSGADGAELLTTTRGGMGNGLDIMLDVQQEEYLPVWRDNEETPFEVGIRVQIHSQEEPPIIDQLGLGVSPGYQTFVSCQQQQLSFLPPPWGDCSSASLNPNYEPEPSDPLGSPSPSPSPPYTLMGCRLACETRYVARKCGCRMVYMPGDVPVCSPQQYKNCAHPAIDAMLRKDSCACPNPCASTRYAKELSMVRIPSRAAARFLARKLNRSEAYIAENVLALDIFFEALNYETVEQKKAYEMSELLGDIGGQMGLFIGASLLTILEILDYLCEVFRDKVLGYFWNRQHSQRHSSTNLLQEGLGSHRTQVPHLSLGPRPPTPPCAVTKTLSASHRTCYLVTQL

ENaC [3] = settings: pig AEC type II cells; cited from earlier work
ENaC [4] = settings: dog AEC type II cells; cited from earlier work
ENaC [5] = target: T2, ENaC (Rattus norvegicus, UniProt P37089+P37090+P37091); settings: rat AEC type II cells; cited from earlier work
T2 construct: amiloride-sensitive Na+ currents (via ENaC) in rat, dog, and pig AEC type II cells; endogenous in cells; host or cells: rat AEC type II cells
T2 sequence (P37089 1-698): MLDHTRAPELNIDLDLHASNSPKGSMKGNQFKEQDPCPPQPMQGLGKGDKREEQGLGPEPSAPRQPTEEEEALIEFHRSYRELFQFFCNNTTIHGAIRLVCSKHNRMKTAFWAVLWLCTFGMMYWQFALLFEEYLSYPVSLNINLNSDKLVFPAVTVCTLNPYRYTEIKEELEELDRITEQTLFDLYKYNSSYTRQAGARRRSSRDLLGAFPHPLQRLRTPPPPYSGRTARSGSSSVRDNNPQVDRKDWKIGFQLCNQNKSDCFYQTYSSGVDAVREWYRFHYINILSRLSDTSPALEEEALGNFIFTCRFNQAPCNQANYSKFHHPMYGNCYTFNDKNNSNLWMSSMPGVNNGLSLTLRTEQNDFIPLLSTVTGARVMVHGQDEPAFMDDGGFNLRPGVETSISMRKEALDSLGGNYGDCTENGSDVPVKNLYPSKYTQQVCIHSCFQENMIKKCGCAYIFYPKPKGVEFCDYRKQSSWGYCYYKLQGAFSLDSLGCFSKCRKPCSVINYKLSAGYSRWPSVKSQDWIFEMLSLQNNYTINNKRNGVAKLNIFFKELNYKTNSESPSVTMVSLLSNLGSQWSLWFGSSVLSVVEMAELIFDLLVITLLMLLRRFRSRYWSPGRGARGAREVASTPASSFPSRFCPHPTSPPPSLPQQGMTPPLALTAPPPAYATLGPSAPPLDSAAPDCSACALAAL
T2 sequence (P37090 1-638): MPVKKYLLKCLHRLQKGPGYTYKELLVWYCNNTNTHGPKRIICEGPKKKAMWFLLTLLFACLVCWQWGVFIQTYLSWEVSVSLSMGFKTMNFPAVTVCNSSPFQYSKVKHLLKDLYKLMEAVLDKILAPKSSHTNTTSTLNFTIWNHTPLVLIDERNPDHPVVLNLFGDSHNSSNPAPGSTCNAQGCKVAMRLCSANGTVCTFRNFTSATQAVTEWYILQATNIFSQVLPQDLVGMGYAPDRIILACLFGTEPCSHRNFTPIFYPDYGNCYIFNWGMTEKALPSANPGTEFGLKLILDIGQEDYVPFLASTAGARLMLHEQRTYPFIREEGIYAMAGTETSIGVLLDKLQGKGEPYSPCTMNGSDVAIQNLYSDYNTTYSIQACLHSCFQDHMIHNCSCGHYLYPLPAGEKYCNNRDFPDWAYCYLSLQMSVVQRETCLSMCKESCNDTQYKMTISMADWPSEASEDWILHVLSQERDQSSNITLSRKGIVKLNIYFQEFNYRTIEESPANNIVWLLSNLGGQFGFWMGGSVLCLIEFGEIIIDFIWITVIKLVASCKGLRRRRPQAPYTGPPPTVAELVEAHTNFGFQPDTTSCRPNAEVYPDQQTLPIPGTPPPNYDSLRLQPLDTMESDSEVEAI
T2 sequence (P37091 1-650): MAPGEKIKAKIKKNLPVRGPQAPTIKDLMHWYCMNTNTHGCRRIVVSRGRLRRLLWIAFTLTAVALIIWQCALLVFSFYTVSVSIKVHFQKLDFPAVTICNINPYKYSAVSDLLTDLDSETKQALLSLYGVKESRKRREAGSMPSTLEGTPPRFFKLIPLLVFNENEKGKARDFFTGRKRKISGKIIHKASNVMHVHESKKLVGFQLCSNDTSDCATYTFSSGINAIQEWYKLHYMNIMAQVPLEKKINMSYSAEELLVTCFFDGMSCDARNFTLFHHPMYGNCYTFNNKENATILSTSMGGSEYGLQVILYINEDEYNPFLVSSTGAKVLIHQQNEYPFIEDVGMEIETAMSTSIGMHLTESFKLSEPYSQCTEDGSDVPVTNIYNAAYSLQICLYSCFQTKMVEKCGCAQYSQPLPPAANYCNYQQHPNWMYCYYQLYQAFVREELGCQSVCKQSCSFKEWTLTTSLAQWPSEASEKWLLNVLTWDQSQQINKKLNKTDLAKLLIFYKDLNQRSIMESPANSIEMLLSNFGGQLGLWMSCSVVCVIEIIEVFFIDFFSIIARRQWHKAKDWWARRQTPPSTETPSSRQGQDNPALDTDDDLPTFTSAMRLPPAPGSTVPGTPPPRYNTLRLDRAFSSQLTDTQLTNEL

Molecule | pain related behavior (ASIC3 [1]) | ASIC3 currents (ASIC3 [2]) | increase of amiloride-sensitive Na+ currents versus baseline (ENaC [3]) | increase of amiloride-sensitive Na+ currents versus baseline (ENaC [4]) | increase of amiloride-sensitive Na+ currents versus baseline (ENaC [5])
Cc1nc(NC(=N)N)nc2ccccc12 [GMQ, 2-guanidine-4-methylquinazoline] | induces pain related behavior | induces persistent ASIC3 currents | – | – | –
AP301: ENaC activator; human TNF-α-derived cyclic peptide composed of 17 natural amino acids | – | – | ~16 fold | ~13 fold | about 9 fold
